Data published in patent publication US20240150315A1, “BETA-2 ADRENORECEPTOR MODULATORS AND METHODS OF USING SAME” (University of Maryland, Baltimore, priority 2022, published 2024).
Entries after “also recorded” stand apart in the source; their conditions may differ.

Key:
[1] = system: human precision-cut lung slices; test: bronchodilation of methacholine-contracted human precision-cut lung slices; settings: for effect on ISO-induced increase in airway lumen area (bronchodilation): 100 nM compound, methacholine 1 μM
Description: (§1) To further examine the effect of PAMs and NAMs on β-agonists-mediated regulation of bronchorelaxation in a physiologically-relevant model, human and murine precision-cut lung slices were used. […] Lung slices were treated with increasing concentrations of ISO plus either vehicle or 100 nM of compounds 1001, 1002, and 1003, and a change in airway lumen area was determined.
(§2) FVB mice expressing human β2AR in smooth muscle were used in this study. The protocol for animal experiments is approved by the Institutional Animal Care and Use Committee. Murine lungs were perfused with 4% low melting agarose, allowed to solidify at 4° C. for 1 h. For human airways, a small lobe was inflated with 2% low-melting-point agarose and cores of 8 mm in diameter were made. Both human and murine lungs were then sliced (˜250 μm thick) using an oscillating tissue slicer (OTS-5000, FHC Inc). Lung slices cultured for 48 h were treated with methacholine (MCh, 1 μM), and images of the airways were obtained before and 10 min after MCh stimulation using EVOS FL Auto (Life technologies, Waltham, MA) microscope. The lung slices were treated with ISO (1 nM-10 μM) with vehicle or AMs and images of the airways were captured at 10 min intervals for a total of 50 min. Images of airways were used to calculate the area of airways using Image J software (NIH). Data from lung slice experiments were plotted as a percentage of methacholine-induced decrease in airway area compared to baseline area.

β2AR [2] = test: cell surface ELISA of β2AR expression (receptor internalization) in HEK293 cells; assay type: cell-based, human; settings: 15 min; for effect on ISO-induced loss of cell surface expression of wild-type or mutant β2AR: AMs 100 nM with ISO 100 nM
Description: ISO induced receptor internalization was assessed via cell surface ELISA as previously described. Briefly, HEK-293 cells expressing β2AR were plated on 24-well plates. Cells were treated with 100 nM ISO with vehicle or 100 nM AMs for 15 minutes. Post treatment, cells were washed and fixed with 10% formalin-buffered saline for 10 minutes on ice, washed twice, and further processed using horseradish peroxidase-conjugated chicken polyclonal anti-HA antibody (Abcam). Cells were washed and incubated with 3,3′,5,5′-tetramethylbenzidine substrate and transferred to a 96-well plate containing sulfuric acid to stop the colorimetric reaction. FlexStation3 was used to measure absorbance at 450 nm. All values were normalized to basal value (no ISO/AMs) of wild-type receptor.

[3] = system: murine precision-cut lung slices; test: bronchodilation of methacholine-contracted murine precision-cut lung slices; parameters: species or system FVB mice expressing human β2AR in smooth muscle; settings: for effect on ISO-induced increase in airway lumen area (bronchodilation): 100 nM compound, methacholine 1 μM
Description: as §1, §2

human ASM cells = test: collagen gel contraction assay with human ASM cells, histamine-induced contraction; assay type: cell-based; settings: 10 μM histamine; for effect on ISO-mediated inhibition of histamine-induced contraction of human ASM cells: AMs 100 nM, 10 min pretreatment
From the text: β-agonists are the drug of choice for management of acute bronchoconstriction in asthmatics, acting on the target ASM cells. The Gs-cAMP-protein kinase A signaling axis effected by β-agonists inhibits contraction of ASM cells via multiple mechanisms. Therefore, it was examined whether the modulation of this signaling pathway by the discovered PAM/NAMs translated into functional differences in β2AR control of ASM contraction. In a standard gel-contraction assay, the collagen gels containing human ASM cells were incubated with different concentrations of ISO with vehicle or 100 nM AMs for 10 min, followed by stimulation with 10 μM histamine. The gel images were obtained before and after treatment with different agonists using an EVOS microscope, and a change in the gel area was calculated. Treatment with 10 μM histamine decreased the area of the gels, consistent with contraction of ASM cells. Pretreatment of gels with ISO inhibited the histamine-induced decrease in gel area (FIG. 14A).
100 μl of ASM cell suspension (5×10^5 cells/ml) containing type-I rat tail collagen (1.5 mg/ml) in F-12 medium was seeded onto a 96-well plate. After 24 h, collagen gels were loosened from the plate. The contraction was initiated by adding histamine (10 μM), with or without pretreatment with increasing concentration of ISO, with vehicle or AMs for 10 min prior to histamine. Images were obtained using an EVOS live tissue microscope before and at 10 min intervals for 40 min after the addition of histamine. Gel area was obtained for each of the mages using NIH ImageJ software. Data were expressed as percentage gel contraction and calculated using the following equation. [(T0 gel area−T10 gel area)/T0 gel area×100%].

human wild type β2AR = target: T1, human wild type β2AR (Homo sapiens, UniProt P07550); test: ISO-induced cAMP accumulation (ELISA) in HEK293 cells overexpressing human wild type β2AR; assay type: cell-based; settings: AMs 100 nM, different concentrations of ISO
T1 construct: host or cells: HEK293
From the text: Activation of β2AR by orthosteric ligands leads to activation of Gαs subunit, which in turn activates AC to hydrolyze ATP to produce cAMP. To determine the biological activity of the AMs of the β2AR, HEK293 cells overexpressing human wild type β2AR were stimulated with different concentrations of test compounds and evaluated for cAMP production using a cAMP ELISA. […] These compounds were used in subsequent studies.
HEK293 cell lines were obtained from the American Type Culture Collection (ATCC) and maintained in Dulbecco's modified Eagle's medium (DMEM) as described previously.
The human β2AR cDNA containing 3-HA tag at N-terminus subcloned into a pcDNA3.1 was obtained from www.cdna.org. […] Mutations were confirmed by DNA sequencing. HEK293 cells were transfected with cDNA expressing (wild type or mutant; see below) human β2AR using Lipofectamine 3000 (Invitrogen, Waltham, MA) and used for studies within 36-48 h, or were maintained in media containing G418 at 500 μg/ml concentration.
(§3) Cells were grown to full confluency in 24-well plates, serum-starved for 24 h, and then incubated with 1 mM IBMX for 10 min. Cells were then incubated with ISO (1 nM to 10 μM) or β2AR modulators alone or concomitantly for 10 min and cAMP levels were measured by ELISA (Life Technologies, Waltham, MA) as described previously.

[4] = system: R131K, R131A, Y219F, Y219S, Y219A, F282Y, F282W, and F282A mutant β2ARs; test: ISO-induced cAMP generation in HEK293 cells expressing mutant β2AR; assay type: cell-based, human; settings: AMs 100 nM, compared with wild-type β2AR
Description: To validate the identity of the computationally identified allosteric site, β2AR containing R131K, R131A, Y219F, Y219S, Y219A, F282Y, F282W, and F282A mutations was generated (FIG. 11A). Wild-type and mutant β2AR were expressed in HEK293 cells, and ISO-induced cAMP generation was measured in the presence or absence of the PAM compound 1001, or NAM compounds 1002 and 1003 (FIGS. 11B-E). The compounds were also tested at different concentrations of ISO in the cells expressing mutant β2AR (FIGS. 12A-D). The cAMP response was enhanced in cells expressing R131A and diminished in F282A mutant β2AR compared to cells expressing wild-type β2AR. […] Further, as expected, compound 1001 enhanced ISO-induced cAMP generation in cells expressing wild-type β2AR, and this effect was abolished in cells expressing mutant β2AR (FIGS. 11C-E, FIGS. 12B-D). Furthermore, NAM compounds 1002 and 1003 inhibited ISO-induced cAMP generation in wild-type β2AR expressing cells, and this inhibition was attenuated in cells expressing R131K, R131A, Y219F, Y219S, Y219A, F282Y, F282W, and F282A mutant β2ARs (FIGS. 11C-E, FIGS. 12B-D).
The human β2AR cDNA containing 3-HA tag at N-terminus subcloned into a pcDNA3.1 was obtained from www.cdna.org. Binding site residues PHE(F)282, TYR(Y)219, and ARG(R)131 were mutated to different amino acids using the QuikChange 11 XL Site-Directed Mutagenesis Kit (Agilent, Santa Clara, CA) per manufacturer's protocol. Mutations were confirmed by DNA sequencing. HEK293 cells were transfected with cDNA expressing (wild type or mutant; see below) human β2AR using Lipofectamine 3000 (Invitrogen, Waltham, MA) and used for studies within 36-48 h, or were maintained in media containing G418 at 500 μg/ml concentration. […]
as §3

β2AR [5] = target: T2, β2AR (Homo sapiens, UniProt P07550); test: β-arrestin2 recruitment to the β2AR, BRET assay in HEK293 cells; assay type: cell-based; settings: AMs 100 nM, increasing concentrations of ISO
T2 construct: expressed in transfected cells; host or cells: HEK293
Description: In addition to the canonical Gs signaling, the “balanced” b-agonists induce β-arrestin recruitment to the β2AR resulting in β2AR desensitization and activation of non-canonical signaling such as ERK1/2 signaling. […] Furthermore, the effect of AMs on ISO-induced phosphorylation of ERK1/2 was tested.
β-agonist-induced recruitment of β-arrestin to the β2AR was assessed by BRET assay as described previously. HEK293 cells were transfected with pcDNA-β-arrestin2-GFP10 and pcDNA3-β2AR-RlucII and after 48 h the cells were treated with increasing concentration of ISO and vehicle or 100 nM PAMs or NAMs followed by the addition of Coelenterazine 400a for 20 mins. Change in BRET was measured using a Tecan Infinite F500 microplate reader. BRET ratios were calculated by dividing the intensity of light emitted by the GFP10 acceptor by the total light emitted by the RLucII donor.

mice = test: in vivo bronchodilation after MCh-induced bronchoconstriction by flexiVent; settings: aerosol ISO with compound vs vehicle after MCh
Description: Compound 1001 augments isoproterenol (ISO)-induced bronchodilation in mice. Change in methacholine (MCh)-induced bronchoconstriction (lung resistance) upon aerosol treatment of mice with MCh followed by aerosol treatment of mice with ISO with vehicle or compound 1001 using flexiVent (Scireq) method was assessed.
In vivo lung function measurements. Lung mechanics are studied using flexiVent (Scireq) method. Briefly, anesthetized, intubated mice are ventilated with a tidal volume of 250 μl at 150 breaths/min. Mouse airways are exposed to increasing doses of methacholine (MCh; 1.56-50 mg/ml) using an in-line ultrasonic nebulizer. Following MCh-induced bronchoconstriction, mice are aerosolized with increasing concentrations of β-agonists (0.1-20 mg/ml)+AMs (100 nM). Airway resistance (Rn), tissue damping (G), and elastance (H) data (normalized to body weight) at individual doses of agonists are determined using the flexiWare software.

T2 sequence (P07550 whole entry): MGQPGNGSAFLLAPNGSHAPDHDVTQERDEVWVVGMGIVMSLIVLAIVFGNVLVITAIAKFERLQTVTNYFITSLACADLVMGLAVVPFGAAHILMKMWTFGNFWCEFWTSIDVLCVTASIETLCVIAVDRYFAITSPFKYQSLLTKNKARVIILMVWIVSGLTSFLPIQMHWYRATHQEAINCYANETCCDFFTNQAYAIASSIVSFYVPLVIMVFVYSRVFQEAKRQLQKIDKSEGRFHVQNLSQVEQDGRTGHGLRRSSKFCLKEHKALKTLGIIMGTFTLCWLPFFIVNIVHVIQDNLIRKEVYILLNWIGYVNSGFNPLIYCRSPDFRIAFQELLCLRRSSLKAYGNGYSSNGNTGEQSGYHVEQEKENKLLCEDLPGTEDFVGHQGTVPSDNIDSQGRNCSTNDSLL
T1 sequence (P07550 whole entry): as above

Row | Structure (SMILES) | airway lumen area (bronchodilation) ([1]; ISO alone) | cell surface expression of the β2AR (β2AR [2]; ISO 100 nM alone) | airway lumen area (bronchodilation) ([3]; ISO alone) | histamine-induced decrease in gel area (human ASM cells; ISO pretreatment alone) | effect on ISO-induced cAMP accumulation (human wild type β2AR) | effect of the modulator on ISO-induced cAMP generation in cells expressing mutant β2AR [4] | effect on ISO-induced increase in airway lumen area (bronchodilation) [1] | effect on ISO-induced β-arrestin2 recruitment to the β2AR (change in BRET) (β2AR [5]) | effect on ISO-induced loss of cell surface expression of wild-type or mutant β2AR (β2AR [2]) | effect on ISO-induced increase in airway lumen area (bronchodilation) [3] | effect on ISO-induced bronchodilation (lung resistance) (mice) | effect on ISO-mediated inhibition of histamine-induced contraction of human ASM cells (human ASM cells)
1 | CC(C)NCC(O)c1ccc(O)c(O)c1 (centres unmarked) [ISO, isoproterenol, reference compound] | dose-dependent increase | loss of cell surface expression | dose-dependent increase | inhibited | – | – | – | – | – | – | – | –
2 | OCCC1CN(Cc2ccccn2)CCN1C1CCCC1 (centres unmarked) [compound 1001] | – | – | – | – | most effective PAM; also recorded: enhanced | abolished | significantly enhanced | did not alter | did not affect | significantly enhanced | augments | significantly enhanced
3 | Cc1nc2ccccc2nc1CN1CCN(C2CCCCC2)C(CCO)C1 (centres unmarked) [compound 1002] | – | – | – | – | most effective NAMs; also recorded: inhibited | attenuated | mitigated | did not alter | did not affect | mitigated | – | either slightly reduced or had no effect
4 | Cc1cnn(-c2cc(N/N=C/c3ccccc3O)ncn2)c1 [compound 1003] | – | – | – | – | most effective NAMs; also recorded: inhibited | attenuated | mitigated | did not alter | did not affect | mitigated | – | either slightly reduced or had no effect
